Source: patent US5140009A (Tap Pharmaceuticals, Inc., priority 1990, dated 1992)
pKi: −log10 of the molar value. Numbered stars: 1 amine (or outer) side, 2 acyl side, 3 side chain; on linkers, the order of the positions; unused ones are H or OH. Square brackets hold non-standard residues; d marks the D form. Peptide text beside a SMILES is read from it. * marks the point of attachment. Propanoyl(3-(4-F-phenyl)) = O=C(CCc1ccc(F)cc1)*; Phe(4-Cl) = N[C@@H](Cc1ccc(Cl)cc1)C(=O)O; 1Nal = N[C@@H](Cc1cccc2ccccc12)C(=O)O; d1Nal = N[C@H](Cc1cccc2ccccc12)C(=O)O; Lys(iPr) = CC(C)NCCCC[C@H](N)C(=O)O; NMeY = CN[C@@H](Cc1ccc(O)cc1)C(=O)O; dBta = N[C@H](Cc1csc2ccccc12)C(=O)O; d2Thi = N[C@H](Cc1cccs1)C(=O)O; dCha = N[C@H](CC1CCCCC1)C(=O)O; NHPhenethyl = c1ccc(CCN*)cc1; Nicotinoyl = O=C(c1cccnc1)*; Morpholide = C1CN(*)CCO1; CO = O=C([*:1])[*:2]; Sar = CNCC(=O)O

These compounds were tested against T1, LHRH receptors (Rattus norvegicus, UniProt P30969) (assay: Receptor Binding (radioligand receptor binding assay)). Conditions: Receptor Binding pkI, table 4; rat pituitary membranes, radioligand 50 pM, 2 hours at 4° C.
T1 construct: Pituitary membranes containing LHRH receptors are prepared in batches from quick-frozen rat pituitaries; tissue Hilltop Labs; host or cells: rat pituitary membranes
T1 sequence (P30969 1-327): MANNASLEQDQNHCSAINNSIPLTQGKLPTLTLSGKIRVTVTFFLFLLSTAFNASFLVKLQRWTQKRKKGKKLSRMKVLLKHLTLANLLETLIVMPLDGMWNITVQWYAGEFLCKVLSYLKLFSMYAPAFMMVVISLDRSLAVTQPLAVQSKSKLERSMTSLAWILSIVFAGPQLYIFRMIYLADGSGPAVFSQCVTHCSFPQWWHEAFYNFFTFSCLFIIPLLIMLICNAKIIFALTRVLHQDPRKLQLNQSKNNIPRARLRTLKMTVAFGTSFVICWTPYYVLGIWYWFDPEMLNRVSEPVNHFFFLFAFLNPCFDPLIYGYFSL

| Compound | pKi |
| --- | --- |
| CC(C)C[C@H](NC(=O)[C@@H](Cc1c[nH]c2ccccc12)NC(=O)[C@H](Cc1ccc(O)cc1)N(C)C(=O)[C@H](CO)NC(=O)[C@@H](Cc1c[nH]c2ccccc12)NC(=O)[C@@H](Cc1ccccc1)NC(=O)NCCc1ccccc1)C(=O)N[C@@H](CCCNC(=N)N)C(=O)N1CCC[C@H]1C(=O)N[C@H](C)C(N)=O [Compound 234, N-(alpha-Phenethylaminocarbonyl)-D-Phe-D-Trp-Ser-NMeTyr-D-Trp-Leu-Arg-Pro-D-AlaNH2] ({NHPhenethyl-CO}-[dF][dW]S[NMeY][dW]LRP[dA]-NH2) | 9.40 |

Same assay, conditions: table 4; rat pituitary membranes, radioligand 50 pM, 2 hours at 4° C.; read-out: Receptor Binding pkI (converted)

| Compound | Ki |
| --- | --- |
| CC(C)C[C@H](NC(=O)[C@@H](CCCCN)NC(=O)[C@H](Cc1ccc(O)cc1)N(C)C(=O)[C@H](CO)NC(=O)[C@@H](Cc1csc2ccccc12)NC(=O)CCc1ccc(F)cc1)C(=O)N[C@@H](CCCNC(=N)N)C(=O)N1CCC[C@H]1C(=O)N[C@H](C)C(N)=O [Compound 177, (3-10)[N-(3-(4-Fluorophenyl)propionyl)-D-3-Bal^3 -NMeTyr^5 -D-Lys^6 -D-Ala^10]LHRH] ({Propanoyl(3-(4-F-phenyl))}-[dBta]S[NMeY][dK]LRP[dA]-NH2) | 0.00589 nM |
| CC(C)C[C@H](NC(=O)[C@@H](CCCCNC(=O)c1cccnc1)NC(=O)[C@H](Cc1ccc(O)cc1)N(C)C(=O)[C@H](CO)NC(=O)[C@@H](Cc1c[nH]c2ccccc12)NC(=O)CCc1ccc(F)cc1)C(=O)N[C@@H](CCCCNC(C)C)C(=O)N1CCC[C@H]1C(=O)N[C@H](C)C(N)=O [Compound 195, (3-10)[N-(3-(4-Fluorophenyl)propionyl)-D-Trp^3 -NMeTyr^5 -D-Lys^6 (N-epsilon-nicotinyl)-Lys^8 (N-epsilon-isopropyl)-D-Ala^10]LHRH] ({Propanoyl(3-(4-F-phenyl))}-[dW]S[NMeY][dK](Nicotinoyl)L[Lys(iPr)]P[dA]-NH2) | 0.0234 nM |
| CC(C)C[C@H](NC(=O)[C@@H](Cc1c[nH]c2ccccc12)NC(=O)[C@H](Cc1ccc(O)cc1)N(C)C(=O)[C@H](CO)NC(=O)[C@@H](Cc1c[nH]c2ccccc12)NC(=O)[C@H](Cc1cccc2ccccc12)NC(=O)N1CCOCC1)C(=O)N[C@@H](CCCNC(=N)N)C(=O)N1CCC[C@H]1C(=O)N[C@H](C)C(N)=O [Compound 221, (2-10)[N-(alpha-Morpholinocarbonyl)-1-Nal^2 -D-Trp^3,6 -NMeTyr^5 -D-Ala^10]LHRH] ({Morpholide-CO}-[1Nal][dW]S[NMeY][dW]LRP[dA]-NH2) | 0.204 nM |
| CC(C)C[C@H](NC(=O)[C@@H](Cc1c[nH]c2ccccc12)NC(=O)[C@H](Cc1ccc(O)cc1)NC(=O)[C@H](CO)NC(=O)[C@H](Cc1c[nH]c2ccccc12)NC(=O)[C@H](Cc1cccc2ccccc12)NC(=O)N1CCOCC1)C(=O)N[C@@H](CCCNC(=N)N)C(=O)N1CCC[C@H]1C(=O)N[C@H](C)C(N)=O [Compound 223, (2-10)[N-(alpha-Morpholinocarbonyl)-1-Nal^2 -D-Trp^6 -D-Ala^10]LHRH] ({Morpholide-CO}-[1Nal]WSY[dW]LRP[dA]-NH2) | 0.0269 nM |
| CC(C)C[C@H](NC(=O)[C@@H](CCCCN)NC(=O)[C@H](Cc1ccc(O)cc1)N(C)C(=O)[C@H](CO)NC(=O)[C@@H](Cc1cccs1)NC(=O)[C@H](Cc1ccc(Cl)cc1)NC(=O)N1CCOCC1)C(=O)N[C@@H](CCCNC(=N)N)C(=O)N1CCC[C@H]1C(=O)N[C@H](C)C(N)=O [Compound 230, (2-10)[N-(alpha-Morpholinocarbonyl)-4-Cl-Phe^2 -D-Thia^3 -NMeTyr^5 -D-Lys^6 -D-Ala^10]LHRH] ({Morpholide-CO}-[Phe(4-Cl)][d2Thi]S[NMeY][dK]LRP[dA]-NH2) | 0.11 nM |
| CCNC(=O)[C@@H]1CCCN1C(=O)[C@H](CCCNC(=N)N)NC(=O)[C@H](CC(C)C)NC(=O)[C@@H](Cc1c[nH]c2ccccc12)NC(=O)[C@H](Cc1ccc(O)cc1)NC(=O)[C@H](CO)NC(=O)[C@@H](Cc1cccs1)NC(=O)[C@H](Cc1ccccc1)NC(=O)N1CCOCC1 [Compound 236, (2-9)[N-(alpha-Morpholinocarbonyl)-Phe^2 -D-Thia^3 -D-Trp^6 -Pro^9 NHEt]LHRH] ({Morpholide-CO}-F[d2Thi]SY[dW]LRP-NHEt) | 0.708 nM |
| CCNC(=O)[C@@H]1CCCN1C(=O)[C@H](CCCNC(=N)N)NC(=O)[C@H](CC(C)C)NC(=O)[C@@H](Cc1c[nH]c2ccccc12)NC(=O)[C@H](Cc1ccc(O)cc1)NC(=O)[C@H](CO)NC(=O)[C@H](Cc1cccc2ccccc12)NC(=O)[C@H](Cc1ccccc1)NC(=O)N1CCOCC1 [Compound 237, (2-9)[N-(alpha-Morpholinocarbonyl)-Phe^2-1-Nal^3 -D-Trp^6 -Pro^9 NHEt]LHRH] ({Morpholide-CO}-F[1Nal]SY[dW]LRP-NHEt) | 0.0355 nM |

Continued, values first:

| Ki | Compound |
| --- | --- |
| 0.251 nM | CCNC(=O)N[C@@H](Cc1ccccc1)C(=O)N[C@H](Cc1cccc2ccccc12)C(=O)N[C@@H](CO)C(=O)N[C@@H](Cc1ccc(O)cc1)C(=O)N[C@H](Cc1c[nH]c2ccccc12)C(=O)N[C@@H](CC(C)C)C(=O)N[C@@H](CCCNC(=N)N)C(=O)N1CCC[C@H]1C(=O)NCC [Compound 238, (2-9)[N-(alpha-Ethylaminocarbonyl)-Phe^2 -D-1-Nal^3 -D-Trp^6 -Pro^9 NHEt]LHRH] ({NHEt-CO}-F[d1Nal]SY[dW]LRP-NHEt) |
| 0.832 nM | CCNC(=O)N[C@@H](Cc1ccccc1)C(=O)N[C@@H](Cc1cccc2ccccc12)C(=O)N[C@@H](CO)C(=O)N[C@@H](Cc1ccc(O)cc1)C(=O)N[C@H](Cc1c[nH]c2ccccc12)C(=O)N[C@@H](CC(C)C)C(=O)N[C@@H](CCCNC(=N)N)C(=O)N1CCC[C@H]1C(=O)NCC [Compound 239, (2-9)[N-(alpha-Ethylaminocarbonyl)-Phe^2-1-Nal^3 -D-Trp^6 -Pro^9 NHEt]LHRH] ({NHEt-CO}-F[1Nal]SY[dW]LRP-NHEt) |
| 0.0132 nM | CC(C)C[C@H](NC(=O)[C@@H](CCCCNC(=O)c1cccnc1)NC(=O)[C@H](Cc1ccccc1)NC(=O)[C@H](CO)NC(=O)[C@@H](Cc1cccc2ccccc12)NC(=O)CCc1ccc(F)cc1)C(=O)N[C@@H](CCCCNC(C)C)C(=O)N1CCC[C@H]1C(=O)N[C@H](C)C(N)=O [Compound 252, (3-10)[N-(3-(4-Fluorophenyl)propionyl)-D-1-Nal^3 -Phe^5 -D-Lys^6 (N-epsilon-nicotinyl)-Lys^8 (N-epsilon-isopropyl)-D-Ala^10]LHRH] ({Propanoyl(3-(4-F-phenyl))}-[d1Nal]SF[dK](Nicotinoyl)L[Lys(iPr)]P[dA]-NH2) |
| 0.00933 nM | CC(C)C[C@H](NC(=O)[C@@H](CCCCNC(=O)c1cccnc1)NC(=O)[C@H](Cc1ccc(O)cc1)N(C)C(=O)[C@H](CO)NC(=O)[C@@H](Cc1csc2ccccc12)NC(=O)CCc1ccc(F)cc1)C(=O)N[C@@H](CCCCNC(C)C)C(=O)N1CCC[C@H]1C(=O)N[C@H](C)C(N)=O [Compound 253, (3-10)[N-(3-(4-Fluorophenyl)propionyl)-D-3-Bal^3 -NMeTyr^5 -D-Lys^6 (N-epsilon-nicotinyl)-Lys^8 (N-epsilon-isopropyl)-D-Ala^10]LHRH] ({Propanoyl(3-(4-F-phenyl))}-[dBta]S[NMeY][dK](Nicotinoyl)L[Lys(iPr)]P[dA]-NH2) |
| 0.012 nM | CC(C)C[C@H](NC(=O)[C@@H](CCCCNC(=O)c1cccnc1)NC(=O)[C@H](Cc1ccc(O)cc1)N(C)C(=O)[C@H](CO)NC(=O)[C@@H](CC1CCCCC1)NC(=O)CCc1ccc(F)cc1)C(=O)N[C@@H](CCCCNC(C)C)C(=O)N1CCC[C@H]1C(=O)N[C@H](C)C(N)=O [Compound 254, (3-10)[N-(3-(4-Fluorophenyl)propionyl)-D-Cha^3 -NMeTyr^5 -D-Lys^6 (N-epsilon-nicotinyl)-Lys^8 (N-epsilon-isopropyl)-D-Ala^10]LHRH] ({Propanoyl(3-(4-F-phenyl))}-[dCha]S[NMeY][dK](Nicotinoyl)L[Lys(iPr)]P[dA]-NH2) |
| 0.0151 nM | CC(C)C[C@H](NC(=O)[C@@H](CCCCNC(=O)c1cccnc1)NC(=O)[C@H](Cc1ccc(O)cc1)N(C)C(=O)[C@H](CO)NC(=O)[C@@H](Cc1cccc2ccccc12)NC(=O)CCc1ccc(F)cc1)C(=O)N[C@@H](CCCCNC(C)C)C(=O)N1CCC[C@H]1C(=O)N(C)CC(N)=O [Compound 255, N-(3-(4-Fluorophenyl)propionyl)-D-1-Nal-Ser-NMeTyr-D-Lys(N-epsilon-nicotinyl)-Leu-Lys(N-epsilon-isopropyl)-Pro-SarNH2] ({Propanoyl(3-(4-F-phenyl))}-[d1Nal]S[NMeY][dK](Nicotinoyl)L[Lys(iPr)]P[Sar]-NH2) |

These compounds were tested on male castrate rats (assay: In vivo LH Inhibiton). Conditions: table 4, 30 ug/kg subcutaneously by bolus injection, AUC of log (LHt /LHi).
Design: species or system rat
Procedure: (c) In vivo LH Inhibiton. The compound to be tested is administered at 30 ug/kg subcutaneously by bolus injection to male castrate rats and blood samples are collected periodically over 24 hours. The AUC (area under the curve) of the LH suppression data as a function of time is calculated using the formula log (LHt /LHi) wherein LHt is the LH concentration in the blood at time t and LHi is the initial baseline LH concentration in the blood. The AUC values are negative numbers.

| Compound | AUC (24 hr. after 30 ug/kg) |
| --- | --- |
| CC(C)C[C@H](NC(=O)[C@@H](CCCCN)NC(=O)[C@H](Cc1ccc(O)cc1)N(C)C(=O)[C@H](CO)NC(=O)[C@@H](Cc1csc2ccccc12)NC(=O)CCc1ccc(F)cc1)C(=O)N[C@@H](CCCNC(=N)N)C(=O)N1CCC[C@H]1C(=O)N[C@H](C)C(N)=O [Compound 177, (3-10)[N-(3-(4-Fluorophenyl)propionyl)-D-3-Bal^3 -NMeTyr^5 -D-Lys^6 -D-Ala^10]LHRH] ({Propanoyl(3-(4-F-phenyl))}-[dBta]S[NMeY][dK]LRP[dA]-NH2) | -938 |
| CC(C)C[C@H](NC(=O)[C@@H](CCCCNC(=O)c1cccnc1)NC(=O)[C@H](Cc1ccc(O)cc1)N(C)C(=O)[C@H](CO)NC(=O)[C@@H](Cc1c[nH]c2ccccc12)NC(=O)CCc1ccc(F)cc1)C(=O)N[C@@H](CCCCNC(C)C)C(=O)N1CCC[C@H]1C(=O)N[C@H](C)C(N)=O [Compound 195, (3-10)[N-(3-(4-Fluorophenyl)propionyl)-D-Trp^3 -NMeTyr^5 -D-Lys^6 (N-epsilon-nicotinyl)-Lys^8 (N-epsilon-isopropyl)-D-Ala^10]LHRH] ({Propanoyl(3-(4-F-phenyl))}-[dW]S[NMeY][dK](Nicotinoyl)L[Lys(iPr)]P[dA]-NH2) | -158 |
| (3-10)[N-(3-(4-Fluorophenyl)propionyl)-D-1-Nal^3 -D-Lys^6 (N-epsilon-4-methoxybenzoyl)-Lys^8 (N-epsilon-isopropyl)-D-Ala^10 ]LHRH [Compound 206] | -412 |
| (3-10)[N-(3-(4-Fluorophenyl)propionyl)-D-Thia^3 -NMeTyr^5 -D-Lys^6 -D-Ala^ ]LHRH [Compound 166] | -208 |
| (3-10)[N-(3-(4-Fluorophenyl)propionyl)-D-Trp^3 -NMeTyr^5 -D-Lys^6 (N-epsilon-nicotinyl)-D-Ala^10 ]LHRH [Compound 163] | -361 |
